Assay results published in patent US6376666B1 (Nauchno-Issledovatelsky Institut Farmakologii Rossiiskoi …, priority 1994, dated 2002).

Tests used:
cats = experiment: hemodynamics and activity of intact heart in cats under anesthesia; assay type: in vivo; details: for Cardiac volume, change from basal level / Heart rate, change from basal level / Mean blood flow accelaration (aortic), change from basal level / Mean blood pressure, change from basal level / Stroke volume, change from basal level: cats
Protocol: The effects of compounds on the hemodynamics and activity of intact heart were studied in cats under anesthesia. The experiments were carried out under conditions of open chest. The phase curve of aortic blood flow was the main index of cardiac activity. The compounds were administered i.v. in physiological solution. The t-Student' test was used to estimate the statistical significance.

aconitine arrhythmia = experiment: animal or person; assay type: in vivo, rats; details: Rattus norvegicus, iv, read-out: Aconitine arrhythmia ED50
Protocol: Aconitine arrhythmia. The aconitine arrhythmia was induced in concious rats weighing 180-200 g by the injection in tail vein of the aconitine sulfate solution at dose range of […]. […] The tested compounds were administered i.v. 3 min prior aconitine injection. The ED50 value was calculated according to Litchfield's method.

Balb/c mice = experiment: open-field test, Balb/c mice (passive type of emotional-stress reaction); assay type: in vivo; set-up: key to Total activity: sum of all locomotor activity counts (crossings + rearings) in 3 min; details: for Central activity (crossings) / Peripheral activity (crossings) / Total activity / Number of defecations / Vertical activity (rearings): M ± mx
Method in brief: (§1)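 Male mice, 20-22 g, dosed i.p. in water 30 min before a 3-min open-field test after 1 min in darkness; peripheral, central, rearing and total activity plus defecations recorded; Student t-test. Anxiolysis read as Balb/c activation, sedation as C57B1/6 inhibition.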

C57B1/6 mice = experiment: open-field test, C57B1/6 mice (active type of emotional-stress reaction); assay type: in vivo; set-up: key to Total activity: sum of all locomotor activity counts (crossings + rearings) in 3 min; details: for Central activity (crossings) / Number of defecations / Peripheral activity (crossings) / Total activity / Vertical activity (rearings): M ± mx
Method in brief: as §1

[1] = 1.0 mg/kg i.v., after injection
[2] = 2.0 mg/kg i.v., after injection

## CN(C)CCSc1nc2ccccc2n1CCc1ccccc1 [Compound XX, 1-(β-Phenylethyl)-2-[2-(dimethylamino)ethylthio]-benzimidazole]
cats; cats i.v., same doses as bradycardia
  effect on contractile function of heart, in words: slightly enhanced the contractility of myocardium
cats; cats i.v., VIII 1,0, IX 0,5 and 1,0, XX 1,0 and 2,0 mg/kg
  duration of bradycardia after administration: 30 min
cats; cats i.v., VIII 1,0, IX 0,5 and 1,0, XX 1,0 and 2,0 mg/kg, XXIII 1.0, verapamil 0.5 mg/kg
  effect on heart rate, in words: expressed bradycardia
cats; 1.0 mg/kg i.v., after 2 min
  Cardiac volume, change from basal level: +2.5 ± 0.9%
  Heart rate, change from basal level: −4.9 ± 1.5 %
  Mean blood flow accelaration (aortic), change from basal level: −1.4 +1.8%
  Mean blood pressure, change from basal level: ± 5.1 ± 1.7 %
  Stroke volume, change from basal level: +7.9 ± 1.6 %
cats; 1.0 mg/kg i.v., after 5 min
  Cardiac volume, change from basal level: −3.9 ± 1.5%
  Heart rate, change from basal level: −5.2 ± 2.1%
  Mean blood flow accelaration (aortic), change from basal level: −3.6 ± 2.4%
  Mean blood pressure, change from basal level: +2.0 ± 1.0%
  Stroke volume, change from basal level: +1.7 ± 3.4%
cats; 1.0 mg/kg i.v., after 10 min
  Cardiac volume, change from basal level: −3.9 ± 2.8%
  Heart rate, change from basal level: −4.3 ± 1.9%
  Mean blood flow accelaration (aortic), change from basal level: −0.6 ± 2.1%
  Mean blood pressure, change from basal level: +1.7 ± 1.2%
  Stroke volume, change from basal level: +0.6 ± 3.5%
cats; 1.0 mg/kg i.v., after 20 min
  Cardiac volume, change from basal level: −4.1 ± 2.8%
  Heart rate, change from basal level: −5.0 ± 4.2%
  Mean blood flow accelaration (aortic), change from basal level: −2.8 ± 2.6%
  Mean blood pressure, change from basal level: +3.3 ± 2.4%
  Stroke volume, change from basal level: +1.4 ± 3.8%
cats; 1.0 mg/kg i.v., after 30 min
  Cardiac volume, change from basal level: −7.0 ± 3.4%
  Heart rate, change from basal level: −5.0 ± 4.2%
  Mean blood flow accelaration (aortic), change from basal level: −3.2 ± 1.8%
  Mean blood pressure, change from basal level: +0.3 ± 3.0%
  Stroke volume, change from basal level: −0.5 ± 4.4%
cats; [1]
  Heart rate, change from basal level: −7.9 ± 1.7 %
  Mean blood flow accelaration (aortic), change from basal level: +10.7 ± 3.3 %
  Mean blood pressure, change from basal level: −0.9 ± 2.7%
  Stroke volume, change from basal level: +25.2 ± 2.6 %
cats; 2.0 mg/kg i.v., after 2 min
  Cardiac volume, change from basal level: +1.2 ± 2.8%
  Heart rate, change from basal level: −5.2 ± 1.8 %
  Mean blood flow accelaration (aortic), change from basal level: −3.0 ± 3.9%
  Mean blood pressure, change from basal level: ± 4.6 ± 3.5%
  Stroke volume, change from basal level: +6.9 ± 3.1%
cats; 2.0 mg/kg i.v., after 5 min
  Cardiac volume, change from basal level: −0.5 ± 3.1%
  Heart rate, change from basal level: −4.5 ± 1.4 %
  Mean blood flow accelaration (aortic), change from basal level: +1.6 ± 5.1%
  Mean blood pressure, change from basal level: +3.3 ± 2.5%
  Stroke volume, change from basal level: +4.2 ± 3.8%
cats; 2.0 mg/kg i.v., after 10 min
  Cardiac volume, change from basal level: −1.4 ± 3.0%
  Heart rate, change from basal level: −3.1 ± 1.6%
  Mean blood flow accelaration (aortic), change from basal level: −1.0 ± 3.1%
  Mean blood pressure, change from basal level: −1.0 ± 1.8%
  Stroke volume, change from basal level: +1.8 ± 2.1%
cats; 2.0 mg/kg i.v., after 20 min
  Cardiac volume, change from basal level: −4.7 ± 5.2%
  Heart rate, change from basal level: −3.6 ± 1.7%
  Mean blood flow accelaration (aortic), change from basal level: −3.8 ± 4.0%
  Mean blood pressure, change from basal level: −5.3 ± 0.8 %
  Stroke volume, change from basal level: −1.1 ± 5.4%
cats; 2.0 mg/kg i.v., after 30 min
  Cardiac volume, change from basal level: −5.5 ± 5.2%
  Heart rate, change from basal level: −4.0 ± 2.2%
  Mean blood flow accelaration (aortic), change from basal level: −6.2 ± 4.9%
  Mean blood pressure, change from basal level: −9.6 ± 3.5%
  Stroke volume, change from basal level: +1.7 ± 3.9%
cats; [2]
  Cardiac volume, change from basal level: +22.7 ± 6.6 %
  Heart rate, change from basal level: −10.7 ± 2.5 %
  Mean blood flow accelaration (aortic), change from basal level: +22.5 ± 9.3%
  Mean blood pressure, change from basal level: −13.6 ± 5.1%
  Stroke volume, change from basal level: +38.5 ± 10.6 %
Aconitine arrhythmia
  ED50: < 0.5 mg/kg

## CCOc1ccc2nc(SCCN3CCOCC3)[nH]c2c1 [XII, 2-[2-(Morpholino)ethylthio]-5-ethoxybenzimidazole]
Balb/c mice; 0.001 mg/kg i.p.
  Central activity (crossings): 1.6 ± 1.6
  Peripheral activity (crossings): 28.9 ± 8.8
  Total activity: 30.3 ± 9.4
Balb/c mice; 0.01 mg/kg i.p.
  Central activity (crossings): 2.6 ± 1.4
  Number of defecations: 3.1 ± 0.6
  Peripheral activity (crossings): 79.8 ± 9.3
  Total activity: 83.2 ± 11.3
  Vertical activity (rearings): 0.9 ± 0.6
Balb/c mice; 0.05 mg/kg i.p.
  Number of defecations: 2.0 ± 0.8
  Peripheral activity (crossings): 37.1 ± 6.7
  Total activity: 37.1 ± 6.7
Balb/c mice; 0.1 mg/kg i.p.
  Number of defecations: 2.4 ± 0.7
  Peripheral activity (crossings): 70.6 ± 10.6
  Total activity: 73.7 ± 12.7
Balb/c mice; 0.5 mg/kg i.p.
  Central activity (crossings): 2.9 ± 1.5
  Number of defecations: 1.6 ± 0.8
  Peripheral activity (crossings): 77.6 ± 14.2
  Total activity: 80.5 ± 15.7
Balb/c mice; 1.0 mg/kg i.p.
  Central activity (crossings): 0.5 ± 0.3
  Number of defecations: 2.8 ± 0.9
  Peripheral activity (crossings): 66.3 ± 11.1
  Total activity: 66.8 ± 11.4
Balb/c mice; 5.0 mg/kg i.p.
  Central activity (crossings): 2.3 ± 1.5
  Number of defecations: 0.8 ± 0.5
  Peripheral activity (crossings): 43.0 ± 4.4
  Total activity: 45.3 ± 5.9
Balb/c mice; 10.0 mg/kg i.p.
  Central activity (crossings): 0.9 ± 0.3
  Number of defecations: 2.0 ± 0.7
  Peripheral activity (crossings): 54.8 ± 8.3
  Total activity: 55.7 ± 8.6
Balb/c mice; 30.0 mg/kg i.p.
  Central activity (crossings): 1.1 ± 0.7
  Number of defecations: 4.5 ± 1.4
  Peripheral activity (crossings): 50.5 ± 7.9
  Total activity: 51.7 ± 8.7
  Vertical activity (rearings): 0.1 ± 0.1
Balb/c mice; 50.0 mg/kg i.p.
  Number of defecations: 1.6 ± 0.5
  Peripheral activity (crossings): 11.0 ± 1.6
  Total activity: 11.0 ± 1.6
Balb/c mice; i.p., screening
  effect on the behavior (locomotor activity) of Balb/c mice in open-field test, in words: able to activate the behavior of Balb/c mice
C57B1/6 mice; 0.1 mg/kg i.p.
  Central activity (crossings): 18.3 ± 1.9
  Number of defecations: 1.3 ± 0.3
  Peripheral activity (crossings): 92.9 ± 5.4
  Total activity: 123.6 ± 8.4
  Vertical activity (rearings): 12.5 ± 1.1
C57B1/6 mice; 1.0 mg/kg i.p.
  Central activity (crossings): 20.4 ± 2.3
  Number of defecations: 0.5 ± 0.5
  Peripheral activity (crossings): 86.6 ± 4.3
  Total activity: 123.5 ± 8.4
  Vertical activity (rearings): 16.5 ± 1.8
C57B1/6 mice; 10.0 mg/kg i.p.
  Central activity (crossings): 36.0 ± 4.9
  Number of defecations: 0.6 ± 0.6
  Peripheral activity (crossings): 86.6 ± 10.9
  Total activity: 140.2 ± 19.0
  Vertical activity (rearings): 17.6 ± 3.2
C57B1/6 mice; 20.0 mg/kg i.p.
  Central activity (crossings): 23.4 ± 4.9
  Number of defecations: 1.8 ± 0.6
  Peripheral activity (crossings): 86.4 ± 4.0
  Total activity: 127.2 ± 11.6
  Vertical activity (rearings): 17.4 ± 2.7
C57B1/6 mice; 30.0 mg/kg i.p.
  Central activity (crossings): 26.3 ± 10.2
  Number of defecations: 0.1 ± 0.1
  Peripheral activity (crossings): 53.0 ± 5.7
  Total activity: 87.9 ± 17.5
  Vertical activity (rearings): 8.3 ± 4.6
C57B1/6 mice; 50.0 mg/kg i.p.
  Central activity (crossings): 13.9 ± 5.3
  Number of defecations: 0.5 ± 0.3
  Peripheral activity (crossings): 67.1 ± 11.9
  Total activity: 90.1 ± 19.8
  Vertical activity (rearings): 9.1 ± 2.6
C57B1/6 mice; i.p., doses that activate Balb/c mice
  effect on locomotor activity of C57B1/6 mice in open-field test, in words: without any changes in locomotor activity
cats; cats i.v., doses of 0,5 mg/kg-2,0 mg/kg
  effect on heart rate, in words: small and short bradycardia
